Measurements: PubChem BioAssay AID2060486 (Molecular Pharmacology Branch, DTP, NCI, 2025)

Test system: IGROV1 complex spheroids (HUVEC, MSC), viability % test/control
Experiment: Anticancer human tumor IGROV1 cell line growth inhibition [GQUAD];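 note: spheroids exposed to compounds for 7 days before readout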;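 for viability, T/C: 100% = DMSO vehicle control viability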
Details: for IC50: curve of first compound; for viability, T/C: stronger effect = lower value
Outline: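 Tumor cells were grown as complex spheroids with HUVEC endothelial cells and mesenchymal stem cells as stroma. G-quadruplex stabilizers were combined with targeted agents over half-log dilutions from near the clinical Cmax, or from 10 microM.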

[1] = second compound 0.0316 µM, first compound 0.0316 µM
[2] = second compound 0.0316 µM, first compound 0.1 µM
[3] = second compound 0.0316 µM, first compound 0.316 µM
[4] = second compound 0.0316 µM, first compound 1 µM
[5] = second compound 0.0316 µM, first compound 3.16 µM
[6] = second compound 0.0316 µM, first compound 10 µM
[7] = second compound 0.1 µM, first compound 0.0316 µM
[8] = second compound 0.1 µM, first compound 0.1 µM
[9] = second compound 0.1 µM, first compound 0.316 µM
[10] = second compound 0.1 µM, first compound 1 µM
[11] = second compound 0.1 µM, first compound 3.16 µM
[12] = second compound 0.1 µM, first compound 10 µM
[13] = second compound 0.316 µM, first compound 0.0316 µM
[14] = second compound 0.316 µM, first compound 0.1 µM
[15] = second compound 0.316 µM, first compound 0.316 µM
[16] = second compound 0.316 µM, first compound 1 µM
[17] = second compound 0.316 µM, first compound 3.16 µM
[18] = second compound 0.316 µM, first compound 10 µM
[19] = second compound 1 µM, first compound 0.0316 µM
[20] = second compound 1 µM, first compound 0.1 µM
[21] = second compound 1 µM, first compound 0.316 µM
[22] = second compound 1 µM, first compound 1 µM
[23] = second compound 1 µM, first compound 3.16 µM
[24] = second compound 1 µM, first compound 10 µM
[25] = second compound 3.16 µM, first compound 0.0316 µM
[26] = second compound 3.16 µM, first compound 0.1 µM
[27] = second compound 3.16 µM, first compound 0.316 µM
[28] = second compound 3.16 µM, first compound 1 µM
[29] = second compound 3.16 µM, first compound 3.16 µM
[30] = second compound 3.16 µM, first compound 10 µM
[31] = second compound 10 µM, first compound 0.0316 µM
[32] = second compound 10 µM, first compound 0.1 µM
[33] = second compound 10 µM, first compound 0.316 µM
[34] = second compound 10 µM, first compound 1 µM
[35] = second compound 10 µM, first compound 3.16 µM
[36] = second compound 10 µM, first compound 10 µM

C#Cc1c(F)ccc2cc(O)cc(-c3ncc4c(N5CC6CCC(C5)N6)nc(OCC56CCCN5CC(F)C6)nc4c3F)c12 (centres undefined) + Cc1[nH]c2ccc(F)cc2c1-c1nc2c3cccnc3c3ncccc3c2[nH]1
IC50 (second compound 0.0316 µM): > 10000 nM | IC50 (second compound 0.1 µM): > 10000 nM | IC50 (second compound 0.316 µM): 3920 nM | IC50 (second compound 1 µM): < 31.6 nM | IC50 (second compound 3.16 µM): < 31.6 nM | IC50 (second compound 10 µM): < 31.6 nM | viability, T/C [1]: 101% | viability, T/C [2]: 76.3% | viability, T/C [3]: 99.2% | viability, T/C [4]: 78.7% | viability, T/C [5]: 89.2% | viability, T/C [6]: 60.1% | viability, T/C [7]: 88.4% | viability, T/C [8]: 70.3% | viability, T/C [9]: 68.4% | viability, T/C [10]: 81.6% | viability, T/C [11]: 91.4% | viability, T/C [12]: 62.2% | viability, T/C [13]: 66.2% | viability, T/C [14]: 40% | viability, T/C [15]: 69.3% | viability, T/C [16]: 58.6% | viability, T/C [17]: 58.7% | viability, T/C [18]: 12.7% | viability, T/C [19]: 2.66% | viability, T/C [20]: 3.87% | viability, T/C [21]: 2.81% | viability, T/C [22]: 3.06% | viability, T/C [23]: 2.68% | viability, T/C [24]: 1.82% | viability, T/C [25]: 3.12% | viability, T/C [26]: 3.21% | viability, T/C [27]: 3.09% | viability, T/C [28]: 2.69% | viability, T/C [29]: 2.86% | viability, T/C [30]: 1.68% | viability, T/C [31]: 2.87% | viability, T/C [32]: 3.1% | viability, T/C [33]: 3.6% | viability, T/C [34]: 2.65% | viability, T/C [35]: 2.34% | viability, T/C [36]: 1.27%

CCCS(=O)(=O)Nc1ccc(F)c(C(=O)c2c[nH]c3ncc(-c4ccc(Cl)cc4)cc23)c1F + Cc1[nH]c2ccc(F)cc2c1-c1nc2c3cccnc3c3ncccc3c2[nH]1
IC50 (second compound 0.0316 µM): 4760 nM | IC50 (second compound 0.1 µM): 5340 nM | IC50 (second compound 0.316 µM): 1390 nM | IC50 (second compound 1 µM): < 31.6 nM | IC50 (second compound 3.16 µM): < 31.6 nM | IC50 (second compound 10 µM): < 31.6 nM | viability, T/C [1]: 97.9% | viability, T/C [2]: 95.9% | viability, T/C [3]: 98.4% | viability, T/C [4]: 59.4% | viability, T/C [5]: 80.5% | viability, T/C [6]: 19.3% | viability, T/C [7]: 104% | viability, T/C [8]: 91.6% | viability, T/C [9]: 77.5% | viability, T/C [10]: 64.8% | viability, T/C [11]: 82.1% | viability, T/C [12]: 11.7% | viability, T/C [13]: 86.6% | viability, T/C [14]: 81.1% | viability, T/C [15]: 81.4% | viability, T/C [16]: 53.2% | viability, T/C [17]: 32.3% | viability, T/C [18]: 2.23% | viability, T/C [19]: 4.32% | viability, T/C [20]: 3.48% | viability, T/C [21]: 3.41% | viability, T/C [22]: 3.93% | viability, T/C [23]: 4.28% | viability, T/C [24]: 3% | viability, T/C [25]: 3.26% | viability, T/C [26]: 3.6% | viability, T/C [27]: 3.61% | viability, T/C [28]: 3.81% | viability, T/C [29]: 3.5% | viability, T/C [30]: 2.72% | viability, T/C [31]: 3.29% | viability, T/C [32]: 3.66% | viability, T/C [33]: 4.63% | viability, T/C [34]: 3.69% | viability, T/C [35]: 3.96% | viability, T/C [36]: 2.93%
